Experiments:
TGFβ1 mRNA = test: Real-time PCR of colonic TGFβ / TGFβ1 mRNA
[1] = tested on: indoleamine 2,3-dioxygenase mRNA; test: Real-time PCR of indoleamine 2,3-dioxygenase mRNA in distal colon; assay type: in vivo, SJL/J mouse; settings: TNBS colitis, Day 4; PBS 8 fold
From the text: (§1) Six week old female SJL/J mice weighing approximately 20 grams, which were maintained at a controlled temperature and light/dark cycle in a pathogen free facility, were anesthetized with an intraperitoneal injection of a 10% Ketamine/Xylazine mixture. […] Mice were sacrificed 4 days after treatment for determination of indoleamine 2,3-dioxygenase protein and mRNA levels.

IFN-γ mRNA = test: Real-time PCR of colonic IFN-γ mRNA
[2] = tested on: lymphocytes in lamina propria lymphoid aggregates; test: BrdU immunohistochemistry of lymphocyte proliferation in lamina propria lymphoid aggregates; assay type: in vivo, mice; settings: 4 days and 6 days after TNBS
Protocol: Lymphocyte proliferation was determined by BrdU labeling of lamina propria lymphoid aggregates of mice treated with Trinitrobenzene Sulfonic Acid enemas plus subcutaneous pellets containing 1-methyl-tryptophan.
BrdU immunohistochemistry was performed to measure cellular proliferation in hypertrophied lymphoid aggregates within the lamina propria of Trinitrobenzene Sulfonic Acid ±1-methyl-tryptophan treated mice. Mice were given rectal Trinitrobenzene Sulfonic Acid and subcutaneous pellets containing 1-methyl-tryptophan or placebo. Groups of mice were sacrificed at 4 days and 6 days after Trinitrobenzene Sulfonic Acid administration. Each mouse received BrdU two hours prior to sacrifice in order to label the S-phase cells. Four micro paraffin sections were prepared from the inflamed colon segments with macroscopically visible hypertrophied colonic patches then labeling was performed as previously described in Riehl, Gasteroenterology, 118: 1106-16, 2000.

IL-12 mRNA = test: Real-time PCR of colonic IL-12 mRNA; settings: 4 days after TNBS, Example 5; placebo 20-fold
interleukin (IL)-2 mRNA = test: Real-time PCR of colonic IL-2 mRNA; settings: 4 days after TNBS
TNBS colitis = TNBS colitis treated with CTLA-4-Ig with or without 1-mT: weight, survival, clinical characteristics, histological and morphological scoring; assay type: in vivo, SJL/J mice
IL-1 mRNA = test: Real-time PCR of colonic IL-1 mRNA; settings: 4 days after TNBS
[3] = tested on: indoleamine 2,3-dioxygenase protein; test: Western blotting of indoleamine 2,3-dioxygenase protein in distal colon lysates; assay type: in vivo, mouse; settings: four days after TNBS, 1-mT versus placebo
Protocol: as §1
Western blotting (Bio-Rad, Hercules, Calif.) for determining indoleamine 2,3-dioxygenase protein amount was performed on whole colon lysates obtained from the distal colons of both control mice and mice treated with Trinitrobenzene Sulfonic Acid. For Lamina Propria Mononuclear cells, 1×10^6 cells were concentrated and loaded per lane. The samples were denatured and separated on an 8% Sodium Dodecyl Sulphate-Polyacrylamide (SDS-PAGE) gel. After electrophoresis, the separated proteins were then transferred to an Immobilon-P Transfer Membrane (Millipore, Be-dford, Mass.). […] The secondary antibodies were donkey anti-rabbit linked to horseradish peroxidase. After probing for indoleamine 2,3-dioxygenase protein, the membranes were stripped and reprobed for β-actin, which was used in addition to the protein assay to ensure equal protein loading.
Western blotting for indoleamine 2,3-dioxygenase was performed as follows. […] The protein was detected using ECL (Amersham). […]

[4] = tested on: Forkhead box P3 (Foxp3) mRNA; test: Real-time PCR of colonic Foxp3 mRNA; assay type: in vivo, mouse; settings: Day 4 of TNBS colitis
TNFα mRNA = test: Real-time PCR of colonic TNFα mRNA; assay type: in vivo, mouse; settings: TNBS colitis, Day 4; PBS 5 fold
[5] = tested on: Trinitrobenzene Sulfonic Acid colitis; settings: mouse, in vivo
[6] = tested on: indoleamine 2,3-dioxygenase in lamina propria mononuclear cells; test: IDO expression in cultured colonic lamina propria mononuclear cells incubated with rIFN-γ and/or LPS; assay type: cell-based, mouse

Cn1cc(C[C@H](N)C(=O)O)c2ccccc21 [1-mT, 1-methyltryptophan]
expression of TGFβ (TGFβ1 mRNA; 4 days after TNBS, Example 5, placebo about half of control): 1.5 times control values | TGFβ1 mRNA induction (TGFβ1 mRNA; Day 4 of TNBS colitis): 0.8 fold | increase in IDO mRNA expression over controls [1]: 2 fold | IFN-γ expression increase over baseline (IFN-γ mRNA; 4 days after TNBS, Example 5, placebo 8-fold): 75 fold | induction of IFN-γ mRNA (IFN-γ mRNA; TNBS colitis, Day 4): 15 fold | S phase lymphocytes in lymphoid aggregates (BrdU) versus placebo [2]: significantly more S phase lymphocytes | IL-12 expression increase over baseline (IL-12 mRNA): 120 fold | IL-2 expression versus TNBS and placebo (interleukin (IL)-2 mRNA): significantly higher expression by orders of magnitude | morphological score (TNBS colitis; Day 4 of TNBS, PBS 2.9): 4.2 | histological score (TNBS colitis; Day 4 of TNBS, PBS 5.4): 6.6 | histology of distal colon (TNBS colitis; TNBS, Day 4): more transmural inflammation, loss of tissue architecture and vasculature, and outright necrosis | survival rate (TNBS colitis; TNBS, by Day 4, PBS+TNBS 75%): 62.5% | surviving animals with clinical characteristics of active TNBS colitis (hunched, piloerection), number of animals (TNBS colitis; TNBS, TNBS+PBS 7/9): 4/5 | surviving animals with clinical characteristics of TNBS colitis (TNBS colitis; TNBS, TNBS+PBS 78%): 80% | mortality (animals dead of animals treated) (TNBS colitis; mouse, in vivo): 3 of 8 | mortality rate (TNBS colitis; mouse, in vivo): 37% | IL-1 mRNA levels versus TNBS alone (IL-1 mRNA): markedly increased | colonic indoleamine 2,3-dioxygenase protein amount [3]: no difference | induction of Foxp3 mRNA [4]: 11 fold | TNFα mRNA induction (TNFα mRNA): 16 fold | effect on colonic morphology [5]: no effect on colonic morphology | gross morphology of colon versus placebo [5]: significant gross morphologic differences | histologic appearance versus placebo [5]: no significant histologic differences | histologic scores versus placebo [5]: significantly higher | survival rate [5]: 100% | survival at 7 days after Trinitrobenzene Sulfonic Acid administration ([5]; sc): 20%

rIFN-γ: recombinant interferon-γ (R&D systems)
indoleamine 2,3-dioxygenase expression after incubation ([6]; B220+ enriched lamina propria mononuclear cell population): did express indoleamine 2,3-dioxygenase after incubation | indoleamine 2,3-dioxygenase expression after incubation ([6]; B220-/MHCII- lamina propria mononuclear cell population): increased after incubation | indoleamine 2,3-dioxygenase expression after incubation ([6]; MHCII+/B220- lamina propria mononuclear cell population): further induced | indoleamine 2,3-dioxygenase protein induction ([6]; colon lamina propria mononuclear cells from STAT1-/- animals): severely blunted indoleamine 2,3-dioxygenase protein induction | indoleamine 2,3-dioxygenase induction ([6]; colonic lamina propria mononuclear cells from C57BL/6 mice, 24 hours): increased significantly | concentration required to maximally increase indoleamine 2,3-dioxygenase protein ([6]; lamina propria mononuclear cells): less than 1 ng/ml | indoleamine 2,3-dioxygenase expression after incubation ([6]; unfractionated lamina propria mononuclear cells of untreated mice, 30 ng/mL, 24 hours): marked increase

Reference: US20050238651A1, “Treatment of inflammatory bowel disease” (priority 2003, published 2005)
